Measured values from ChEMBL document CHEMBL3593233, “Caryophyllene sesquiterpenes from the marine-derived fungus Ascotricha sp. ZJ-M-5 by the one strain-many compounds strategy” (2014).

Columns and labels:
[1] = tested on: HL-60; assay: Growth inhibition of human HL60 cells after 72 hrs by trypan blue assay; assay type: functional; settings: HL-60, 72 h
[2] = tested on: K562; assay: Growth inhibition of human K562 cells after 72 hrs by trypan blue assay; assay type: functional; settings: K562, 72 h

| GI50 [1] [µM] | GI50 [2] [µM] | SMILES |
| --- | --- | --- |
| > 100 | > 100 | CC(=O)O[C@H]1C/C(C)=C/[C@@H](O)/C=C(/CO)[C@H]2CC(C)(C)[C@]12O |
| 6.9 | 10.1 | CC(=O)O[C@H]1C/C(C)=C/[C@@H](O)[C@H](O)[C@H]2[C@H](O)O[C@]13[C@@H]2CC3(C)C |
| 8.5 | 12.3 | CO[C@@H]1[C@H]2[C@H](O)O[C@@]3([C@@H](OC(C)=O)C/C(C)=C/[C@H]1O)[C@@H]2CC3(C)C |
